Results reported in PubChem BioAssay (NCI).
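Step 1: Grow cells in 96-well plates. Step 2: Expose to compound for 48 hours at 5 concentrations. Step 3: Interpolate endpoints linearly; if unreached, use highest concentration. The concentration for 50% growth inhibition is given as GI50. The concentration for full growth arrest is given as TGI.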

Tests used:
Test in all cases: NCI anticancer screen, dose series, 48 h
786-0 renal = test system: 786-0 renal
A498 renal = test system: A498 renal
A549 NSCLC = test system: A549 NSCLC
ACHN renal = test system: ACHN renal
BT-549 breast = test system: BT-549 breast
CAKI-1 renal = test system: CAKI-1 renal
CCRF-CEM leukemia = test system: CCRF-CEM leukemia
COLO 205 colon = test system: COLO 205 colon
DU-145 prostate = test system: DU-145 prostate
EKVX NSCLC = test system: EKVX NSCLC
HCC-2998 colon = test system: HCC-2998 colon
HCT-116 colon = test system: HCT-116 colon
HCT-15 colon = test system: HCT-15 colon
HL-60(TB) leukemia = test system: HL-60(TB) leukemia
HOP-62 NSCLC = test system: HOP-62 NSCLC
HOP-92 NSCLC = test system: HOP-92 NSCLC
HS 578T breast = test system: HS 578T breast
HT29 colon = test system: HT29 colon
IGROV1 ovarian = test system: IGROV1 ovarian
K-562 leukemia = test system: K-562 leukemia
KM12 colon = test system: KM12 colon
LOX IMVI melanoma = test system: LOX IMVI melanoma
M14 melanoma = test system: M14 melanoma
MALME-3M melanoma = test system: MALME-3M melanoma
MCF7 breast = test system: MCF7 breast
MDA-MB-231 breast = test system: MDA-MB-231 breast
MDA-MB-435 = test system: MDA-MB-435
MDA-MB-468 breast = test system: MDA-MB-468 breast
MOLT-4 leukemia = test system: MOLT-4 leukemia
NCI-H226 lung = test system: NCI-H226 lung
NCI-H23 lung = test system: NCI-H23 lung
NCI-H460 lung = test system: NCI-H460 lung
NCI-H522 lung = test system: NCI-H522 lung
NCI/ADR-RES ovarian = test system: NCI/ADR-RES ovarian
OVCAR-3 ovarian = test system: OVCAR-3 ovarian
OVCAR-4 ovarian = test system: OVCAR-4 ovarian
OVCAR-5 ovarian = test system: OVCAR-5 ovarian
OVCAR-8 ovarian = test system: OVCAR-8 ovarian
PC-3 prostate = test system: PC-3 prostate
RPMI-8226 leukemia = test system: RPMI-8226 leukemia
RXF 393 renal = test system: RXF 393 renal
SF-268 CNS = test system: SF-268 CNS
SF-295 CNS = test system: SF-295 CNS
SF-539 CNS = test system: SF-539 CNS
SK-MEL-2 melanoma = test system: SK-MEL-2 melanoma
SK-MEL-28 melanoma = test system: SK-MEL-28 melanoma
SK-MEL-5 melanoma = test system: SK-MEL-5 melanoma
SK-OV-3 ovarian = test system: SK-OV-3 ovarian
SN12C renal = test system: SN12C renal
SNB-19 CNS = test system: SNB-19 CNS
SNB-75 CNS = test system: SNB-75 CNS
SR leukemia = test system: SR leukemia
SW-620 colon = test system: SW-620 colon
T-47D breast = test system: T-47D breast
TK-10 renal = test system: TK-10 renal
U251 CNS = test system: U251 CNS
UACC-257 melanoma = test system: UACC-257 melanoma
UACC-62 melanoma = test system: UACC-62 melanoma
UO-31 renal = test system: UO-31 renal

COc1cccc(/C=N/NC(=O)c2ccc3nc(-c4ccc(Cl)cc4)[nH]c3c2)c1O
GI50 (786-0 renal): 1.06 µM
TGI (786-0 renal): 2.52 µM
GI50 (A498 renal): 5 µM
TGI (A498 renal): 11.9 µM
GI50 (A549 NSCLC): 3.68 µM
TGI (A549 NSCLC): 14.8 µM
GI50 (ACHN renal): 1.32 µM
TGI (ACHN renal): 6.25 µM
GI50 (BT-549 breast): 0.673 µM
TGI (BT-549 breast): 1.79 µM
GI50 (CAKI-1 renal): 1.01 µM
TGI (CAKI-1 renal): 3.51 µM
GI50 (CCRF-CEM leukemia): 0.425 µM
TGI (CCRF-CEM leukemia): 3.77 µM
GI50 (COLO 205 colon): 1.58 µM
TGI (COLO 205 colon): 3.56 µM
GI50 (DU-145 prostate): 1.34 µM
TGI (DU-145 prostate): 3.28 µM
GI50 (EKVX NSCLC): 2.12 µM
TGI (EKVX NSCLC): 9.8 µM
GI50 (HCC-2998 colon): 0.8 µM
TGI (HCC-2998 colon): 2.2 µM
GI50 (HCT-116 colon): 1.19 µM
TGI (HCT-116 colon): 2.57 µM
GI50 (HCT-15 colon): 1.31 µM
TGI (HCT-15 colon): > 40 µM
GI50 (HL-60(TB) leukemia): 1.07 µM
TGI (HL-60(TB) leukemia): 4.63 µM
GI50 (HOP-62 NSCLC): 0.57 µM
TGI (HOP-62 NSCLC): 1.85 µM
GI50 (HOP-92 NSCLC): 0.67 µM
TGI (HOP-92 NSCLC): 2.4 µM
GI50 (HS 578T breast): 0.705 µM
TGI (HS 578T breast): 2.9 µM
GI50 (HT29 colon): 4.17 µM
TGI (HT29 colon): 19.3 µM
GI50 (IGROV1 ovarian): 1.25 µM
TGI (IGROV1 ovarian): 3.14 µM
GI50 (K-562 leukemia): 0.332 µM
GI50 (KM12 colon): 0.715 µM
TGI (KM12 colon): 1.88 µM
GI50 (LOX IMVI melanoma): 1.18 µM
TGI (LOX IMVI melanoma): 2.53 µM
GI50 (M14 melanoma): 1.01 µM
TGI (M14 melanoma): 4.28 µM
GI50 (MALME-3M melanoma): 1.36 µM
TGI (MALME-3M melanoma): 2.89 µM
GI50 (MCF7 breast): 0.66 µM
TGI (MCF7 breast): 3.38 µM
GI50 (MDA-MB-231 breast): 0.988 µM
TGI (MDA-MB-231 breast): 3.15 µM
GI50 (MDA-MB-435): 1.01 µM
TGI (MDA-MB-435): 2.83 µM
GI50 (MDA-MB-468 breast): 0.611 µM
TGI (MDA-MB-468 breast): 1.45 µM
GI50 (MOLT-4 leukemia): 0.421 µM
TGI (MOLT-4 leukemia): 2.46 µM
GI50 (NCI-H226 lung): 1.65 µM
TGI (NCI-H226 lung): 4 µM
GI50 (NCI-H23 lung): 0.525 µM
TGI (NCI-H23 lung): 1.54 µM
GI50 (NCI-H460 lung): 1.34 µM
TGI (NCI-H460 lung): 2.77 µM
GI50 (NCI-H522 lung): 1.17 µM
TGI (NCI-H522 lung): 2.81 µM
GI50 (NCI/ADR-RES ovarian): > 100 µM
TGI (NCI/ADR-RES ovarian): > 100 µM
GI50 (OVCAR-3 ovarian): 0.353 µM
TGI (OVCAR-3 ovarian): 1.05 µM
GI50 (OVCAR-4 ovarian): 0.728 µM
TGI (OVCAR-4 ovarian): 3.18 µM
GI50 (OVCAR-5 ovarian): 1.85 µM
TGI (OVCAR-5 ovarian): 5.08 µM
GI50 (OVCAR-8 ovarian): 1.58 µM
TGI (OVCAR-8 ovarian): 4.39 µM
GI50 (PC-3 prostate): 1.35 µM
TGI (PC-3 prostate): 4.67 µM
GI50 (RPMI-8226 leukemia): 2.22 µM
TGI (RPMI-8226 leukemia): 5.54 µM
GI50 (RXF 393 renal): 0.972 µM
TGI (RXF 393 renal): 2.46 µM
GI50 (SF-268 CNS): 0.484 µM
TGI (SF-268 CNS): 1.52 µM
GI50 (SF-295 CNS): 2.2 µM
TGI (SF-295 CNS): 5.46 µM
GI50 (SF-539 CNS): 0.428 µM
TGI (SF-539 CNS): 1.02 µM
GI50 (SK-MEL-2 melanoma): 0.378 µM
TGI (SK-MEL-2 melanoma): 1.49 µM
GI50 (SK-MEL-28 melanoma): 1 µM
TGI (SK-MEL-28 melanoma): 2.93 µM
GI50 (SK-MEL-5 melanoma): 0.772 µM
TGI (SK-MEL-5 melanoma): 2.09 µM
GI50 (SK-OV-3 ovarian): 1.03 µM
TGI (SK-OV-3 ovarian): 2.79 µM
GI50 (SN12C renal): 1.08 µM
TGI (SN12C renal): 2.59 µM
GI50 (SNB-19 CNS): 1.31 µM
TGI (SNB-19 CNS): 2.59 µM
GI50 (SNB-75 CNS): 0.231 µM
TGI (SNB-75 CNS): 1.38 µM
GI50 (SR leukemia): 0.369 µM
TGI (SR leukemia): 3.75 µM
GI50 (SW-620 colon): 1.32 µM
TGI (SW-620 colon): 3.52 µM
GI50 (T-47D breast): 0.389 µM
TGI (T-47D breast): 2.01 µM
GI50 (TK-10 renal): 4.07 µM
TGI (TK-10 renal): 15.9 µM
GI50 (U251 CNS): 1.5 µM
TGI (U251 CNS): 3.08 µM
GI50 (UACC-257 melanoma): 1.19 µM
TGI (UACC-257 melanoma): 3.53 µM
GI50 (UACC-62 melanoma): 0.607 µM
TGI (UACC-62 melanoma): 1.77 µM
GI50 (UO-31 renal): 1.01 µM
TGI (UO-31 renal): > 48 µM
